This note sets out measurements from US9416115B2, “Fused heterocyclic compounds as ion channel modulators” (Gilead Sciences, Inc., priority 2013, dated 2016).

A short description of data set [1]: Plasma concentration in the rabbit ischemia study. The data set is classed as in vivo, New Zealand rabbits. The following applies: iv infusion targeted to 1 uM plasma. Here is the method:
(§1) Rabbits were anesthetized with ketamine (35 mg/kg) and xylazine (5 mg/kg) intramuscular injection (im). A tracheotomy was performed and the trachea was intubated with an endotracheal tube. The animal was ventilated with room air supplemented with oxygen using a pressure control animal ventilator (Kent Scientific Corp., Torrington, Conn.) at a respiratory rate of 40 strokes/min and peak inspiration pressure of 10 mmH2O, which was adjusted to keep blood gases and pH within the physiological range (iSTAT clinic analyzer, Heska Corp.; Waukesha, Wis.). The left femoral artery was cannulated for the measurement of blood pressure (BP). Blood samples were also withdrawn from femoral artery. The right external jugular vein was cannulated for drug/vehicle administration. Needle electrodes were inserted subcutaneously into the limbs for recording of the surface electrocardiogram (ECG).
(§2) Reference electrodes were placed in the open incision of the neck. The body temperature of the animal was monitored via a rectal thermometer and maintained at 37-40° C. by adjusting the surface temperature of the surgical table. Regional ischemia (15 min) was induced by ligating the LAD followed by 15 min of reperfusion caused by releasing the ligation. The heart was excised at the end of the experiment and the LAD was re-ligated. The ischemic area was visualized by perfusing the heart with 1% Evans blue in saline and calculated as a percentage of total ventricular weight. Rabbits with ischemic area less than 10% or larger than 25% were excluded from the analysis. Animals were randomly assigned to vehicle and test compound groups. Test compounds were dissolved in 15% NMP, 10% Solutol and 75% de-ionized water (dH2O). Test compounds were given as an iv infusion at a rate targeted to reach plasma concentrations of 1 μM. After 30 min of compound administration the heart was subjected to 15 min of ischemia followed by 15 min of reperfusion.

The test system of data set [2] is Ischemia-Induced ST Segment Elevation in Anesthetized Rabbits. The experiment in a line: Ischemia-induced ST segment elevation in anesthetized rabbits. Format: in vivo, New Zealand rabbits. The following applies: iv infusion; 15 min LAD ischemia after 30 min of compound administration. The procedure:
This study was undertaken to determine the anti-ischemic effects of compounds of the present disclosure in an in vivo rabbit model.
Female New Zealand rabbits (3.0-4.0 kg) were purchased from Western Oregon Rabbitry. Animals were housed on a 12-h light and dark cycle and received standard laboratory chow and water. All experiments were performed in accordance with the Guide for the Care and Use of Laboratory Animals published by The National Research Council and with the experimental protocol approved by the Institutional Animal Care Committee of Gilead Sciences, Inc.
as §1
The heart was exposed via an incision in the 4th intercostal space (4th and/or 5th ribs were cut for a clear surgical vision). The chest was opened and a pericardial cradle was formed using 4 retractors. A coronary artery occluder, comprised of a snare made of 5 cm PE-10 tubing with a 6-0 Prolene polypropylene suture in it, was placed loosely around the left anterior descending artery (LAD) at its origin. Two unipolar electrodes, made with teflon coated silver wire attached to a small patch of filter paper, were attached on the surface of the ischemic and normal regions of the left ventricle to record epicardial electrocardiogram.
as §2

Data set [3] deals with T1, hNav1.3 (SCN3A) (Homo sapiens, UniProt Q9NY46).
T1 construct: expressed in transfected cells
T1 sequence (Q9NY46 1-1951 isoform Q9NY46-2): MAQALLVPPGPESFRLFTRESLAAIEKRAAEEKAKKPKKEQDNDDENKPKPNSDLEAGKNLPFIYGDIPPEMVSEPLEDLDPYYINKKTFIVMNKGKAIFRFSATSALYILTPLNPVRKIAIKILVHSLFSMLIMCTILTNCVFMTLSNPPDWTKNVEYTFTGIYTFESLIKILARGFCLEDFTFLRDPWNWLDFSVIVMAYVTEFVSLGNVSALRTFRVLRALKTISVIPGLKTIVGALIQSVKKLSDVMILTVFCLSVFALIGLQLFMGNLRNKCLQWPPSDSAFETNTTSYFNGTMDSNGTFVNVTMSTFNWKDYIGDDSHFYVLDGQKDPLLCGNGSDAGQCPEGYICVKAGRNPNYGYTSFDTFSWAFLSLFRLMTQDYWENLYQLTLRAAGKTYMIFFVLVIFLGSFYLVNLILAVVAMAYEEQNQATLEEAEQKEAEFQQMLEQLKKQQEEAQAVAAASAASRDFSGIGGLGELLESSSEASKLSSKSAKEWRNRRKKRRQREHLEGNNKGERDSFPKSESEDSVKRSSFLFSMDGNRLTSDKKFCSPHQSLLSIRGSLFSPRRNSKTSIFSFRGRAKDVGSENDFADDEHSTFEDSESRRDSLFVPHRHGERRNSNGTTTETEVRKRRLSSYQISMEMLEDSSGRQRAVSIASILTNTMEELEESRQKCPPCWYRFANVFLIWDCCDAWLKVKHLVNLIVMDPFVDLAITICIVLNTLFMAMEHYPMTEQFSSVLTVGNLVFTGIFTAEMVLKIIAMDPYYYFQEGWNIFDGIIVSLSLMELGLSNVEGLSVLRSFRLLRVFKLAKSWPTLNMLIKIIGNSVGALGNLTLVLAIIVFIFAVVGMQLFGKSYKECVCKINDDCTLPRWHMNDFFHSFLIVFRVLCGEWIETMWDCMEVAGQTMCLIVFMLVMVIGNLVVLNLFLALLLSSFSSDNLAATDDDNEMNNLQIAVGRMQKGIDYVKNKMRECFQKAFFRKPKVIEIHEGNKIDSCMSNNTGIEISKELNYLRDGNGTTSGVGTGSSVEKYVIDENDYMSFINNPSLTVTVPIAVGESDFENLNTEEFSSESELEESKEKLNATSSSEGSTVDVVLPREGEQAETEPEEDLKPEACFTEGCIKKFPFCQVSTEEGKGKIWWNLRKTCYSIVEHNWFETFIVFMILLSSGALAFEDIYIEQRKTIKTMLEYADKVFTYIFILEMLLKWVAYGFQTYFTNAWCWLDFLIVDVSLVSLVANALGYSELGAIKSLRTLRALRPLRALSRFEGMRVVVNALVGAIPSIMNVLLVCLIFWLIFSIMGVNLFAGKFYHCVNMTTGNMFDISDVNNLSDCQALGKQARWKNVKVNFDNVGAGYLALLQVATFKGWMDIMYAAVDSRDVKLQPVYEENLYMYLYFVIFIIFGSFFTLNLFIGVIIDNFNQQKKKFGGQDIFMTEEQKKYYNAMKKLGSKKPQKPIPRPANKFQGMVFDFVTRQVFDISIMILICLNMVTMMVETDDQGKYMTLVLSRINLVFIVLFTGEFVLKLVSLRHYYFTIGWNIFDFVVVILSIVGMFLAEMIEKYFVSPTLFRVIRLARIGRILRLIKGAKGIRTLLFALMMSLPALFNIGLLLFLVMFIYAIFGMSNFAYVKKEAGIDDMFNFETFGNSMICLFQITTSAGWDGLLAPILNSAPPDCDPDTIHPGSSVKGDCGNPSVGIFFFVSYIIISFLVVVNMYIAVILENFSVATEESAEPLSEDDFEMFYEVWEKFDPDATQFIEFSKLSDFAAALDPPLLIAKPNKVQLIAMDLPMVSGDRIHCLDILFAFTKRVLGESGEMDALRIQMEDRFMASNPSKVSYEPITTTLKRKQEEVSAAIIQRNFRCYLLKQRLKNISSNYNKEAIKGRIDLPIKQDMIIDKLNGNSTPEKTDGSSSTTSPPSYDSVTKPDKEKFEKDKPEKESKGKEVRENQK
T1 sequence (Q07699 19-218 partner): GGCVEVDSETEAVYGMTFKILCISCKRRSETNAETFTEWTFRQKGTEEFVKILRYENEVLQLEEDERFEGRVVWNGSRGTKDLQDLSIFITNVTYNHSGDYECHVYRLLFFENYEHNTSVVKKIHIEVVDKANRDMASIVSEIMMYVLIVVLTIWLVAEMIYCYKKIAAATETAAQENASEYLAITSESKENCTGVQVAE
T1 sequence (O60939 30-215 partner): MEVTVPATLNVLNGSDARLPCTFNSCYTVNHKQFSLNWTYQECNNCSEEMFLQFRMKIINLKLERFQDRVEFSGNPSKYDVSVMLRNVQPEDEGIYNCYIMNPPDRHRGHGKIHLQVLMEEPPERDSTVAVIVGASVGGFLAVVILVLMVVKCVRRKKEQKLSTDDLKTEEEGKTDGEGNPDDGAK
The experiment in a line: Voltage-dependent inhibition of the Nav1.3 sodium channel. Format: cell-based. The following applies: voltage-dependent block of peak current, read-out: Nav 1.3-VDB 1 uM. Here is the method: HEK-293 cells stably expressing wild-type (WT) hNav1.3 (SCN3A NCBI # NP 001075, SCN1B NCBI # NM 001037.4, SCN2B NCBI # NM 004588.2) were used to record INa. Cells are maintained with standard tissue culture procedures and stable channel expression is maintained with 800 ug/mL G418 and 3 ug/mL Puromycin in the culture medium. Unless otherwise noted, all reagents are purchased from Sigma-Aldrich (St Louis, Mo., U.S.A.).
Assays measuring Voltage-Dependent Block (VDB) of Nav1.3 are performed on an automated electrophysiology platform, QPatch 16X or QPatch HT (Sophion Bioscience, Copenhagen, Denmark), using the whole cell patch clamp technique to measure currents through the cell membrane. Series resistance compensation is set to 100% and series resistance and whole-cell compensation are performed automatically. Currents stored in the Sophion Bioscience Oracle database (Sophion Bioscience, Copenhagen, Denmark). Analysis is performed using QPatch Assay software and data are compiled in Excel 2010 (Microsoft, Seattle, Wash., U.S.A.).
The internal (pipette) solution consists of (in mM) 105 CsF, 10 NaF, 20 CsCl, 2 EGTA, 10 HEPES, 10 Dextrose with a pH of 7.35 and osmolarity of 300 mOsmol/kg. The external (bath) solution contains in (mM): 80 NaCl, 60 Choline-Cl, 4 KCl, 1.8 CaCl2, 1 MgCl2, 10 dextrose, 10 HEPES, with a pH of 7.35 and osmolarity of 310 mOsmol/kg. Experiments are carried out at 23-25° C.
Compound stocks are routinely made by the Gilead Sample Bank in vials to 10 mM in dimethyl sulfoxide (DMSO). In some cases, when compounds are not soluble in DMSO, they are made in 100% ethanol. Stocks are sonicated as necessary. Compounds are diluted in extracellular solution using a MicroLab Nimbus (Hamilton Robotics, Reno, Nev.) to 1 μM in glass vials and transferred to glass well plates before robotic addition to the cells.
Cells are allowed to stabilize for 10 min after establishment of the whole-cell configuration before current is measured. The test compound is applied 3 times at 120 second intervals to allow for equilibration. Currents were leak subtracted using a P/4 procedure, low-pass Bessel filtered at 5 kHz and digitized at 25 kHz. Results are presented as mean percentage inhibition.
Voltage-dependent block of Nav1.3 peak current was measured during a voltage step to 0 mV (20 ms) following a voltage step pre-conditioning steps (−55 mV for 10 sec followed by −120 mV for 10 ms). The holding potential was −120 mV and this voltage protocol induces half maximal inactivation of Nav1.3. The voltage protocol for VDB was performed every 45 seconds in the absence and presence of compound and percentage inhibition was calculated with respect to the compound free condition.

In data set [1], `FC(F)(F)Oc1ccc(-c2ccc3onc(OCc4ncccn4)c3c2)cc1` [Example 1, 3-(pyrimidin-2-ylmethoxy)-5-(4-(trifluoromethoxy)phenyl)benzo[d]isoxazole] registered a Plasma concentration of 1 µM. In data set [2], the “Rabbit ST Segment (Percent reduction)” value came out at 32 Percent reduction.

In the case of `COc1cc(OC(F)(F)F)ccc1-c1ccc2onc(OCc3ncccn3)c2c1` [Example 4, 5-(2-methoxy-4-(trifluoromethoxy)phenyl)-3-(pyrimidin-2-ylmethoxy)benzo[d]isoxazole], the inhibition at 1 µM in data set [3] amounted to 12.2%.

Regarding `Cc1ccnc(COc2noc3ccc(-c4ccc(OC(F)(F)F)cc4)cc23)n1` [Example 5, 3-((4-methylpyrimidin-2-yl)methoxy)-5-(4-(trifluoromethoxy)phenyl)benzo[d]isoxazole], the Plasma concentration in data set [1] came out at 1.4 µM. The inhibition at 1 µM in data set [3] stood at 13.9%. In addition, in data set [2], the “Rabbit ST Segment (Percent reduction)” value was 0 Percent reduction.

With `Fc1cc(C(F)(F)F)ccc1-c1ccc2onc(OCc3ncccn3)c2c1` [Example 6, 5-(2-fluoro-4-(trifluoromethyl)phenyl)-3-(pyrimidin-2-ylmethoxy)benzo[d]isoxazole], the Plasma concentration in data set [1] came to 0.8 µM. Further, in data set [3], the inhibition at 1 µM is less than 5%. The “Rabbit ST Segment (Percent reduction)” value in data set [2] was 0 Percent reduction.

`Cc1cc(-c2ccc3onc(OCc4ncccn4)c3c2)ccc1OC(F)(F)F` [Example 7, 5-(3-methyl-4-(trifluoromethoxy)phenyl)-3-(pyrimidin-2-ylmethoxy)benzo[d]isoxazole]: the inhibition at 1 µM in data set [3] is less than 5%.

On to `Fc1cc(-c2ccc3onc(OCc4ncccn4)c3c2)ccc1Cl` [Example 8, 5-(4-chloro-3-fluorophenyl)-3-(pyrimidin-2-ylmethoxy)benzo[d]isoxazole], for which the inhibition at 1 µM in data set [3] is 6.4%.

In the case of `FC(F)(F)Oc1cccc(-c2ccc3onc(OCc4ncccn4)c3c2)c1` [Example 10, 3-(pyrimidin-2-ylmethoxy)-5-(3-(trifluoromethoxy)phenyl)benzo[d]isoxazole], the inhibition at 1 µM in data set [3] worked out at 8.5%.

Turning to `COc1cc(-c2ccc(OC(F)(F)F)cc2)cc2c(OCc3ncccn3)noc12` [Example 22, 7-methoxy-3-(pyrimidin-2-ylmethoxy)-5-(4-(trifluoromethoxy)phenyl)benzo[d]isoxazole], the inhibition at 1 µM in data set [3] turned out to be 17.3%.

Compound `FC(F)(F)Oc1ccc(-c2ccc3onc(OCCn4cncn4)c3c2)cc1` [Example 58, 3-(2-(1H-1,2,4-triazol-1-yl)ethoxy)-5-(4-(trifluoromethoxy)phenyl)benzo[d]isoxazole] gave a Plasma concentration in data set [1] of 1.3 µM. The “Rabbit ST Segment (Percent reduction)” value in data set [2] came out at 14 Percent reduction.

In data set [1], `O=C1CCCN1CCOc1noc2ccc(-c3ccc(OC(F)(F)F)cc3)cc12` [Example 59, 1-(2-((5-(4-(trifluoromethoxy)phenyl)benzo[d]isoxazol-3-yl)oxy)ethyl)pyrrolidin-2-one] had a Plasma concentration of 1.3 µM. Besides, the inhibition at 1 µM in data set [3] worked out at 14.5%. Also, the “Rabbit ST Segment (Percent reduction)” value in data set [2] turned out to be 23 Percent reduction.

Regarding `CC(COc1noc2ccc(-c3ccc(OC(F)(F)F)cc3)cc12)n1cccn1` (stereo not shown) [Example 68, 3-(2-(1H-pyrazol-1-yl)propoxy)-5-(4-(trifluoromethoxy)phenyl)benzo[d]isoxazole], the inhibition at 1 µM in data set [3] is 27.1%.

The compound `FC(F)(F)Oc1ccc(-c2ccc3onc(OCc4nnc(C5CC5)o4)c3c2)cc1` [Example 96, 3-((5-cyclopropyl-1,3,4-oxadiazol-2-yl)methoxy)-5-(4-(trifluoromethoxy)phenyl)benzo[d]isoxazole] returned a Plasma concentration in data set [1] of 1 µM. For the same compound, the “Rabbit ST Segment (Percent reduction)” value in data set [2] came to 46 Percent reduction.

In the case of `Cc1nnc(COc2noc3ccc(-c4ccc(OC(F)(F)F)cc4)cc23)o1` [Example 99, 3-((5-methyl-1,3,4-oxadiazol-2-yl)methoxy)-5-(4-(trifluoromethoxy)phenyl)benzo[d]isoxazole], in data set [3], the inhibition at 1 µM turned out to be 41.4%.
